Assay results: patent publication US11414442B2, “ARF6 inhibitors and related methods” (Navigen, Inc., priority 2017, dated 2022)
Where “and” joins values, the source holds several entries; their conditions need not be identical. Identical values can stand only once. Entries after “also recorded” stand apart in the source; their conditions may differ. Counter-ions that a name gives are not always drawn. Like-named read-outs stand apart in the source and are kept apart here. Where no end group is shown, it is not given here. The star is where a group is joined. Myristoyl = CCCCCCCCCCCCCC(=O)*

Columns and labels:
[1] = test system: Acinetobacter baumannii (AB) HUMC1; type: in vivo, mouse
Procedure: Briefly, CD-1 male mice were made neutropenic with 200 mg/kg cyclophosphamide and 250 mg/kg cortisone acetate (in 0.05% Tween 80) on Days −2 and +3. On Day 0, neutropenic mice were infected with Acinetobacter baumannii (AB) HUMC1 (virulent strain; see Luo G, et al. J Antimicrob Chemother. 2012; 67:1439-45 and Luo G, et al. PloS one. 2012; 7:e29446) via inhalation. Treatment with “NAV-” compound was initiated at three hours post infection.
Mice can be made neutropenic by injecting them with cyclophosphamide (200 mg/kg IP) and cortisone acetate (250 mg/kg, subcutaneously) on day −2 and +3 relative to infection. To induce AB pneumonia, neutropenic mice can be infected by aerosolizing AB into an inhalational chamber for one hour through a nebulizer as previously described (see Luo G, et al. J Antimicrob Chemother. 2012; 67:1439-45). Dosing and frequency of treatment can be dictated by the PK and ALI studies conducted in Example 6. Placebo mice can receive vehicle. […] Treatment can begin three hours after infection and continue through Day +7, and survival of mice (the primary endpoint) can be followed for 28 days post-infection. Each group may comprise 10 mice and each experiment may be repeated once (for a total of 20 mice per treatment group) to detect a three-day difference in survival by the Log Rank test (α=0.05).

[2] = test system: LPS-induced acute lung injury (ALI); test: Mouse model of LPS-induced ALI, BALF cell count and BALF protein; type: in vivo; details: for percent reduction in LPS-induced increase in BALF cell count / percent reduction in LPS-induced increase in BALF protein: mean ± SEM
Procedure: LPS was instilled into the trachea of anesthetized mice. […] The efficacy endpoints were total cell counts and total protein in BALF. All studies were conducted using vehicle negative controls and dexamethasone (5 mg/kg IP at T=0 and 6) as a positive control. Data were analyzed by 1-way ANOVA followed by Tukey's multiple comparison test (GRAPHPAD PRISM® software, version 6.05). […] Reductions in BALF total protein were also observed. […]

[3] = PK of NAV-A after IP dosing of NAV-B to mice; type: in vivo, mouse; details: six-hour period after IP NAV-B 43 mg/kg
Procedure: (§1) The PK profile of NAV-A was determined following intravenous (IV) and intraperitoneal (IP) administration of prodrug NAV-B to rats and mice, respectively. […] In this experiment, only the appearance and PK profile of NAV-A was followed, using an established LC/MS method. […] Of note was the very rapid appearance of NAV-A in plasma of the rats receiving NAV-B IV; the highest plasma concentration observed was at five minutes post-dose, the first time point measured. […] Near peak plasma levels of NAV-A were observed within 30 minutes.

[4] = target: T1, ARF6 (Homo sapiens, UniProt P62330); test: ARF6 inhibition, biochemical fluorometric nucleotide exchange assay
T1 sequence (P62330 whole entry, species assumed): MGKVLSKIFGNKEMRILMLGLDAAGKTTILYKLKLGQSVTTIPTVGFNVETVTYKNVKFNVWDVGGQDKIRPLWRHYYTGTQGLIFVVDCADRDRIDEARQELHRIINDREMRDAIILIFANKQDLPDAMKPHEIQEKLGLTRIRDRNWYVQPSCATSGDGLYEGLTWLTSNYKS
Description: These ARF6 inhibitors were discovered using a high-throughput biochemical, fluorometric nucleotide exchange assay to screen 100,000 compounds from a commercially available compound library. Medicinal chemistry optimization efforts have also been conducted. In some embodiments, the clinical potential of the discovered small molecule ARF6 inhibitors can be limited by poor solubility. Accordingly, the synthesis and development of water soluble prodrugs of ARF6 inhibitors can be advantageous. […]

[5] = Solubility in water and PBS pH 7.4 (Tables 1 and 2); type: physicochemical
[6] = PK of NAV-A after IV dosing of NAV-B to rats; type: in vivo, rat
Procedure: as §1

[7] = test system: multidrug-resistant Pseudomonas aeruginosa (PA); test: Multidrug-resistant Pseudomonas aeruginosa mouse model of pneumonia; type: in vivo; details: NAV-AAR′ 38 and 64 mg/kg subcutaneous once daily for 6 days
Procedure: NAV-AAR′ is also active in a multidrug-resistant Pseudomonas aeruginosa (PA) mouse model of pneumonia. […] NAV-AAR′ was administered by subcutaneous injection once daily for 6 days. The antibiotic meropenem was ineffective against MDR PA in this model.

[8] = test system: alkaline phosphatase; test: Alkaline phosphatase substrate; type: in vitro ADME; details: metabolized to active metabolite NAV-AAC′
[9] = Aqueous solubility
[10] = Stability in solution; type: physicochemical; details: room temperature, protected from light
[11] = Solubility of ARF6 prodrugs in various vehicles (Table 4); type: physicochemical
[12] = test system: Plasmodium berghei ANKA; test: Mouse model of cerebral malaria; details: NAV-B 42.75 mg/kg IP daily for 11 days from day 3; 14 days post-infection; dihydrochloride
Description: Mice were infected with Plasmodium berghei ANKA on day 0. Treatment was initiated on day 3. […] Surviving mice were sacrificed on day 14.

[13] = test system: VE-cadherin; details: cited from earlier work
[14] = test system: vascular leak; details: in vivo; cited from earlier work
[15] = target: T1, ARF6; details: HMVEC-D cells; cited from earlier work
[16] = test system: LPS-induced endotoxic shock; details: LPS 25 mg/kg IP, peptide IV; cited from earlier work
[17] = Table 1, water, read-out: Solubility Water
[18] = aqueous buffer, Table 1, PBS pH 7.4, read-out: Solubility PBS pH 7.4
[19] = NAV-AAR′ 38 mg/kg or 64 mg/kg intravenous

With `O=c1cc(-c2ccc([N+](=O)[O-])cc2O)n2nc(Cc3ccccc3)c(-c3ccc(Cl)cc3)c2[nH]1` [NAV-A, 2-Benzyl-3-(4-chlorophenyl)-7-(2-hydroxy-4-nitro-phenyl)-4H-pyrazolo[1,5-a]pyrimidin-5-one] the “appearance and weight gain of treated mice” value ([1]; NAV-A 30 mg/kg IP once daily) was “appeared healthy with normal weight gain”, the survival ([1]; NAV-A 30 mg/kg IP once daily for seven days, from 3 h post infection, DMA/PEG300 vehicle) was 50% and the “percent reduction in LPS-induced increase in BALF cell count” value ([2]; 30 mg/kg IP, T = 0) was 57 ± 9%. For the same compound, the “percent reduction in LPS-induced increase in BALF protein” value ([2]; 30 mg/kg IP, T = 0) was 36 ± 13%, the “percent reduction in LPS-induced increase in BALF cell count” value ([2]; 30 mg/kg IP, T = 3) was 55 ± 3% and the “percent reduction in LPS-induced increase in BALF protein” value ([2]; 30 mg/kg IP, T = 3) was 23 ± 12%. For the same compound, the “percent reduction in LPS-induced increase in BALF cell count” value ([2]; 60 mg/kg IP, T = 0) was 95 ± 4%, the “percent reduction in LPS-induced increase in BALF protein” value ([2]; 60 mg/kg IP, T = 0) was 46 ± 24% and the “percent reduction in LPS-induced increase in BALF cell count” value ([2]; 60 mg/kg IP, T = 3) was 91 ± 1%. For the same compound, the “percent reduction in LPS-induced increase in BALF protein” value ([2]; 60 mg/kg IP, T = 3) was 55 ± 6%, the “BALF total protein” value ([2]; NAV-A IP) was “Reductions” and the “total number of cells in BALF” value ([2]; NAV-A IP 60 mg/kg (T=0), 30 mg/kg (T=3), 60 mg/kg (T=3)) was “significant decreases”. The “plasma levels of NAV-A” value [3] was “high and sustained plasma levels”, the IC50 ([4]; Table 1, read-out: ARF6 IC50) was 2700 nM and the solubility [5, 17] was 35 µM. For the same compound, the solubility [5, 18] was 8 µM, the “time of highest plasma concentration observed” value ([6]; NAV-A after IV NAV-B, rats, first time point measured) was “five” and the “exposure of NAV-A” value ([6]; after administration of NAV-B) was “excellent exposure”.
For `Cc1ccc(-c2c[nH]c3c(-c4ccc(Cl)cc4)c(Cc4ccccc4)nn3c2=O)c(OP(=O)([O-])[O-])c1.[Na+].[Na+]` [NAV-AAR′], the “survival in MDR PA pneumonia” value [7] was “improve survival; also recorded: increase in survival”, the “number of total (nucleated) cells in BALF” value [2, 19] was “significant reductions; also recorded: decrease” and the “protein concentration in BALF” value [2, 19] was “significant reductions; also recorded: decrease”. The “substrate for alkaline phosphatase” value [8] was “substrate for alkaline phosphatase”, the solubility [9] was no more than 50 mg/mL and the IC50 ([4]; Table 2, read-out: ARF6 IC50) was 1000 to 2000 nM. The IC50 ([4]; approximately, read-out: ARF6 IC50) was 1000 to 2000 nM, the stable in solution [10] was “up to 4 months” and the solubility ([5]; Table 2, water, read-out: Solubility Water) was greater than 50 mg/mL.
With `NCCCC[C@H](N)C(=O)Oc1cc([N+](=O)[O-])ccc1-c1cc(=O)[nH]c2c(-c3ccc(Cl)cc3)c(Cc3ccccc3)nn12` [NAV-B, [2-[2-benzyl-3-(4-chlorophenyl)-5-oxo-4H-pyrazolo[1,5-a]pyrimidin-7-yl]-5-nitro-phenyl] (2S)-2,6-diaminohexanoate dihydrochloride] the survival ([1]; NAV-B 42.75 mg/kg IP once daily for 7 days (equivalent to NAV-A 30 mg/kg), normal saline vehicle) was 90%, the “concentration of cells in BALF” value ([2]; NAV-B 42.75 mg/kg IP) was “significant effect” and the “concentration of protein in BALF” value ([2]; NAV-B 42.75 mg/kg IP) was “significant effect”. For the same compound, the “reduction in LPS-induced BALF cell count” value ([2]; NAV-B 42.75 mg/kg IP at T=0 (equivalent to 30 mg/kg NAV-A), FIG. 10A marks a and b, dihydrochloride) was 62% and 100%, the “reduction in BALF cell count” value ([2]; NAV-B 43 mg/kg IP at T=0) was 70% and the solubility ([11]; 20 mM Na citrate buffer, pH 3.1, aqueous buffer, kinetic from dmso stock, diluted from 10 mM solution in DMSO, read-out: Solubility (μM) 20 mM Na Citrate, pH 3.1) was 280 µM. It also gave a solubility ([11]; 0.1% Tween 80 in D5W, aqueous with cosolvent or surfactant or cyclodextrin, kinetic from dmso stock, diluted from 10 mM solution in DMSO, read-out: Solubility (μM) 0.1% Tween 80 in D5W) of 42 µM, a solubility ([11]; DPBS, pH 7.4, aqueous buffer, kinetic from dmso stock, diluted from 10 mM solution in DMSO, read-out: Solubility (μM) DPBS, pH 7.4) of 1 µM and a solubility ([11]; saline or isotonic, thermodynamic from solid, D5W, prepared from powder, read-out: Solubility (μM) D5W Prepared from powder) of 14000 µM. It also gave a solubility ([11]; water, kinetic from dmso stock, diluted from 10 mM solution in DMSO, read-out: Solubility (μM) H2O) of 400 µM, a solubility ([9]; acidic aqueous media, aqueous buffer) greater than 50 mg/mL and an IC50 ([4]; Table 1, read-out: ARF6 IC50) of 2600 nM. It also gave an IC50 ([4]; Table 4, read-out: ARF6 inhibition IC50) of 2600 nM, a solubility [5, 17] of 425 µM and a solubility [5, 18] of 1.7 µM. For the same compound, the “survival of malaria-infected mice” value [12] was “reduced mortality; also recorded: significant improvement in survival”.
In the case of “MyrARF6 2-13: myristoylated peptide composed of amino acids 2-13 of ARF6, understood to inhibit ARF nucleotide exchange (Myristoyl-GKVLSKIFGNKE; UniProt P62330 2-13, looked up, fragment)”, the “VE-cadherin at cell junctions” value [13] is given as “increased VE-cadherin at cell junctions”, the “leak of Evans blue dye from the blood into lungs and kidneys” value [14] is given as “prevented the leak” and the ARF6 activation [15] is given as “reduced ARF6 activation”. For the same compound, the survival during endotoxemia [16] was “enhanced survival”.
